Results published in patent publication EP2310009B1, “PARENTERAL AND ORAL FORMULATIONS OF BENZIMIDAZOLES” (UNIVERSITY OF HOUSTON, priority 2008, dated 2010).

Legend:
[1] = Mebendazole release from SNEDDS, SEDDS, cosolvent and unformulated suspension; assay type: physicochemical; details: 60 minutes; unformulated drug in release media with placebo SNEDDS
[2] = system: human plasma protein; details: cited from earlier work

extent of drug release [1]: 1.10%
Structure (SMILES): COC(=O)Nc1nc2ccc(C(=O)c3ccccc3)cc2[nH]1 [MZ, methyl 5-benzoylbenzimidazole-2-carbamate]
drug bound to human plasma protein [2]: about 90%
